What all share (test): NCI anticancer screen, dose series, 48 h
For assay [1], the system named is HOP-18.
For assay [2], the system named is XF498.
Assay [3] deals with DMS-273.
Assay [4] relates to Hs-578T.
For assay [5], the system named is LXFL 529.
For assay [6], the system named is RXF 631.
The subject of assay [7] is DMS-114.
Assay [8] relates to M19-MEL.
Assay [9] relates to KM-20L2.

The text below walks through data of ChEMBL document CHEMBL1201862, “PubChem BioAssay data set” (2004).

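1) Cells in 96-well plates. 2) Compound, 48 h, 5 concentrations. 3) Linear interpolation between surrounding doses. 4) Unreached endpoint = highest concentration. GI50 marks 50% less growth.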 Calls of active or inactive are those of the source. Cut-off read from the data, not from the text of the source: active = GI50 up to about 1.1 µM and inactive = higher. Bounds are passed on as bounds.

Consider `CS(=O)(=O)Nc1ccc(Nc2c3ccccc3nc3ccccc23)cc1`, for which the GI50 was 2.82 µM (inactive) in [1]; 2.6 µM (inactive) in [2]; 0.658 µM (active) in [3]; 6.43 µM (inactive) in assay [4]; 3.43 µM (inactive) in assay [5]; 1.77 µM (inactive) in [6]. Also, the figures for the GI50 in assay [7], in [8] and in [9] were 1.46 µM (inactive), 2.32 µM (inactive) and 3.06 µM (inactive), respectively.
As for `C=C1CC2(OC1=O)c1ccccc1CCc1ccccc12`, the GI50 was 1.97 µM (inactive) in [1]; 2.41 µM (inactive) in [2]; 3.49 µM (inactive) in assay [3]; 1.94 µM (inactive) in [4]; 1.7 µM (inactive) in assay [5]; 1.85 µM (inactive) in assay [7]. The GI50 in assay [8] is 1.83 µM (inactive); in assay [9] it was 4.06 µM (inactive).
With `CCC(C)C(N)C(=O)NC(CC(N)=O)C(=O)NC(CC(C)C)C(=O)NC(CCCCN)C(=O)NC(C)C(=O)NC(CC(C)C)C(=O)NC(C)C(=O)NC(C)C(=O)NC(CC(C)C)C(=O)NC(C)C(=O)NC(CCCCN)C(=O)NC(CCCCN)C(=O)NC(C(=O)NC(CC(C)C)C(N)=O)C(C)CC` (stereo not drawn), the GI50 in assay [1] is 7.01 µM (inactive); in assay [3], 7.43 µM (inactive); in [5] it was 14.9 µM (inactive); in [6], 7.82 µM (inactive); in [7] it was 14.1 µM (inactive); in assay [8] it was 10.1 µM (inactive). The GI50 in assay [9] is 22.5 µM (inactive).
Turning to `COc1ccc(-c2cc(-c3cc(C)ccc3O)nc(O)n2)cc1`, the GI50 is > 100 µM (inactive) in [1]; 50.8 µM (inactive) in assay [3]; 64 µM (inactive) in assay [5]; > 100 µM (inactive) in assay [6]; 81.8 µM (inactive) in [7]; > 100 µM (inactive) in assay [8]. In [9], the GI50 was > 100 µM (inactive).
Consider `C[C@]12CCCC(=O)C1C[C@H](C(=O)O)CC2` (stereo partly drawn), for which the GI50 in [1], in assay [2], in assay [3], in assay [5], in [6] and in assay [7] was > 100 µM (inactive) in each case. Also, the GI50 in assay [8] and in [9] was > 100 µM (inactive) each time.
As to `CC1=C(C)C(=O)C2=C(OCCCO2)C1=O`, the GI50 was 18 µM (inactive) in assay [5]; 17.7 µM (inactive) in assay [6]; 18.4 µM (inactive) in assay [7]; 17.9 µM (inactive) in assay [8]; 34.2 µM (inactive) in [9].
Turning to `Cc1ccnc(NS(=O)(=O)c2ccc(NC3=CC(=O)C(=O)c4ccccc43)cc2)n1`, the GI50 in assay [1], in assay [2], in [3], in assay [5], in assay [6] and in [7] was > 100 µM (inactive) throughout. The GI50 in assay [8] and in assay [9] was > 100 µM (inactive) in each case.
Take `COc1ccc(NC(=O)C(=O)C2NC(=S)NC2=O)c(OC)c1` (stereo not drawn): the GI50 in assay [3], in assay [5], in [6], in [7], in [8] and in [9] was > 100 µM (inactive) throughout.
For `NC(=S)NNC(=O)/C(=C/c1ccc(/C=C(\NC(=O)c2ccccc2)C(=O)NNC(N)=S)cc1)NC(=O)c1ccccc1`, the GI50 in assay [1] was > 100 µM (inactive); in [2], 70 µM (inactive); in assay [3], > 100 µM (inactive); in assay [5], 80 µM (inactive); in assay [7], > 71.8 µM (inactive); in [8] it was 72.8 µM (inactive). Also, the GI50 in assay [9] was > 100 µM (inactive).
Consider `CCCCCCCCCCNC(=S)OCCCC`, for which the GI50 in assay [1] is 26.9 µM (inactive); in assay [2], 20.1 µM (inactive); in assay [3], 20.3 µM (inactive); in assay [5], 22.9 µM (inactive); in assay [6], 26.4 µM (inactive); in assay [7], 22.9 µM (inactive). The GI50 in assay [8] is 35.3 µM (inactive); in assay [9], 19.1 µM (inactive).
As for `CN(C)C(=S)/N=c1\ss/c(=N/c2ccccc2)n1C`, the GI50 in assay [1] was > 100 µM (inactive); in assay [3] it was > 100 µM (inactive); in [5], > 100 µM (inactive); in assay [6] it was 44.6 µM (inactive); in [7] it was 77.1 µM (inactive); in [8] it was > 100 µM (inactive). The GI50 in [9] was > 100 µM (inactive).
`CC(=O)Oc1cc(C)c2c(c1OC(C)=O)CC1(O2)[C@@H](C)CCC2[C@@]3(C)CC[C@H](OC(C)=O)C(C)(C)C3CC[C@]21C` (stereo partly drawn): the GI50 was 2.64 µM (inactive) in assay [1]; 2.25 µM (inactive) in assay [3]; 4.62 µM (inactive) in assay [5]; 5.4 µM (inactive) in [6]; 2.29 µM (inactive) in assay [7]; 2.02 µM (inactive) in [8]. Also, the GI50 in assay [9] is 14.1 µM (inactive).
For `O=[N+]([O-])c1ccc(OCCNc2cccc3ccccc23)cc1`, the GI50 in [1] is > 100 µM (inactive); in assay [2], > 100 µM (inactive); in [3], 46.7 µM (inactive); in [5], 33.3 µM (inactive); in assay [6] it was > 100 µM (inactive); in [7], 52.8 µM (inactive). Also, the GI50 in [8] and in assay [9] was > 100 µM (inactive) throughout.
Consider `CCCC(OCC)(OCC)OCC`, for which the GI50 is > 100 µM (inactive) in assay [1]; > 100 µM (inactive) in assay [2]; 52.1 µM (inactive) in assay [3]; > 100 µM (inactive) in assay [5]; > 100 µM (inactive) in assay [6]; 69 µM (inactive) in assay [7]. For the same molecule, the GI50 in assay [8] and in assay [9] was > 100 µM (inactive) in each case.
On to `O=c1c(O)cccn1C1OC(CO)C(O)C1O` (stereo not drawn), for which the GI50 in [1], in [3], in [5], in [6], in assay [7] and in assay [9] was > 100 µM (inactive) each time.
For `CC1=Nc2c(ccc3c2C(=O)c2ccccc2C3=O)NC(c2cccc3c2CCC3)C1` (stereo not drawn), the GI50 in assay [1] was > 67.3 µM (inactive); in [2] it was > 100 µM (inactive); in [3], > 73.6 µM (inactive); in [5] it was > 100 µM (inactive); in [6], 70.1 µM (inactive); in assay [8] it was > 43.4 µM (inactive). Further, the GI50 in [9] was > 100 µM (inactive).
`C[C@]12C=CC(=O)C=C1CC[C@H]1[C@@H]3C[C@@H](O)[C@](O)(C(=O)CO)[C@@]3(C)C[C@H](O)[C@@]12F` [TRIAMCINOLONE]: the GI50 in assay [2], in assay [3], in [5], in [6], in assay [7] and in assay [8] was > 100 µM (inactive) in each case. Also, in [9], the GI50 was > 100 µM (inactive).
